From PubChem BioAssay AID328 (DTP/NCI, 2004)
“And” between values parts separate entries of the source, which are not always exact repeats. Equal entries are not always repeated. Toxic doses and inconclusive results are not listed. How the source made its calls: active means survival T/C of 150% or more; inactive means T/C below 125% in these data.

System: BDF1 mice, P388 leukemia ip, median survival T/C
Experiment: NCI In Vivo Anticancer Drug Screen. Data for tumor model P388 Leukemia (intraperitoneal) in B6D2F1 (BDF1) mice
Conditions: endpoint: median survival time, higher = longer survival
Method in brief: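 In tumour-bearing mice, survival after compound treatment is set against the vehicle group and given as a quotient.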

[1] = dose: 50.0 mg/kg/injection, schedule: Q01DX009 (ip), vehicle: saline with Tween-80
[2] = dose: 100.0 mg/kg/injection, schedule: Q01DX009 (ip), vehicle: saline with Tween-80
[3] = dose: 200.0 mg/kg/injection, schedule: Q01DX009 (ip), vehicle: saline with Tween-80
[4] = dose: 100.0 mg/kg/injection, schedule: Q04DX003 (ip), vehicle: saline with Tween-80
[5] = dose: 200.0 mg/kg/injection, schedule: Q04DX003 (ip), vehicle: saline with Tween-80
[6] = dose: 400.0 mg/kg/injection, schedule: Q04DX003 (ip), vehicle: saline with Tween-80
[7] = dose: 25.0 mg/kg/injection, schedule: Q01DX009 (ip), vehicle: saline with Tween-80
[8] = dose: 25.0 mg/kg/injection, schedule: Q04DX003 (ip), vehicle: saline
[9] = dose: 50.0 mg/kg/injection, schedule: Q01DX009 (ip), vehicle: Klucel (hydroxypropylcellulose) (HPC)

Measured: T/C

CN(C)CCNCc1c[nH]c(=O)[nH]c1=O
inactive: [1] 97 % of control | [2] 94 % of control | [3] 93 % of control

CCOP(=S)(OCC)Sc1cnn(C)c(=O)c1SCC
inactive: dose: 50.0 mg/kg/injection, schedule: Q01DX005 (ip), vehicle: saline with Tween-80 100 % of control | dose: 100.0 mg/kg/injection, schedule: Q01DX005 (ip), vehicle: saline with Tween-80 99 % of control | dose: 200.0 mg/kg/injection, schedule: Q01DX005 (ip), vehicle: saline with Tween-80 100 % of control

COC(=O)C(CSCSC)NC(=O)NC1CCCCC1 (configuration not stated)
inactive: [4] 95 % of control | [5] 104 % of control | [6] 95 % of control

CCCN(CCC)C(=S)[S-].CCCN(CCC)C(=S)[S-].[Zn]
inactive: dose: 37.5 mg/kg/injection, schedule: Q04DX003 (ip), vehicle: saline sonified 100 % of control | dose: 75.0 mg/kg/injection, schedule: Q04DX003 (ip), vehicle: saline sonified 100 % of control | dose: 150.0 mg/kg/injection, schedule: Q04DX003 (ip), vehicle: saline sonified 112 % of control

CN(C)c1ccc(C(=O)NN)cc1
inactive: dose: 6.25 mg/kg/injection, schedule: Q01DX009 (ip), vehicle: saline with Tween-80 91 % of control | dose: 12.5 mg/kg/injection, schedule: Q01DX009 (ip), vehicle: saline with Tween-80 91 % of control | [7] 122 % of control | dose: 25.0 mg/kg/injection, schedule: Q04DX003 (ip), vehicle: saline with Tween-80 100 % of control | [1] 115 % of control | dose: 50.0 mg/kg/injection, schedule: Q04DX003 (ip), vehicle: saline with Tween-80 98 % of control | [2] 121 % of control | [4] 107 % of control | [3] 100 % of control | [5] 109 % of control | dose: 300.0 mg/kg/injection, schedule: Q01DX009 (ip), vehicle: saline with Tween-80 106 % of control

OC(CN1CC1)c1ccccc1 (configuration not stated)
inactive: dose: 20.0 mg/kg/injection, schedule: Q04DX003 (ip), vehicle: saline 90 % of control | dose: 40.0 mg/kg/injection, schedule: Q04DX003 (ip), vehicle: saline 95 % of control | dose: 80.0 mg/kg/injection, schedule: Q04DX003 (ip), vehicle: saline 100 % of control

CC1(C2CC2)NC(=O)NC1=O (configuration not stated)
inactive: dose: 75.0 mg/kg/injection, schedule: Q01DX009 (ip), vehicle: saline 113 % of control | dose: 100.0 mg/kg/injection, schedule: Q01DX001 (ip), vehicle: saline 113 % of control | dose: 150.0 mg/kg/injection, schedule: Q01DX009 (ip), vehicle: saline 104 % of control | dose: 200.0 mg/kg/injection, schedule: Q01DX001 (ip), vehicle: saline 104 % of control | dose: 300.0 mg/kg/injection, schedule: Q01DX009 (ip), vehicle: saline 100 % of control | dose: 400.0 mg/kg/injection, schedule: Q01DX001 (ip), vehicle: saline 104 % of control

Cc1cc(N(C)C)c2ccc3cc4ccccc4cc3c2n1
inactive: [7] 95 % of control | [1] 95 % of control and 114 % of control | [2] 92 % of control and 121 % of control

COc1ccc2[nH]c(=O)c(C)c(C)c2c1
inactive: dose: 3.12 mg/kg/injection, schedule: Q01DX009 (ip), vehicle: saline 98 % of control | dose: 6.25 mg/kg/injection, schedule: Q01DX009 (ip), vehicle: saline 94 % of control | dose: 12.5 mg/kg/injection, schedule: Q01DX009 (ip), vehicle: saline 94 % of control | dose: 25.0 mg/kg/injection, schedule: Q01DX009 (ip), vehicle: saline 92 % of control | [8] 107 % of control | dose: 50.0 mg/kg/injection, schedule: Q01DX009 (ip), vehicle: saline 96 % of control and 117 % of control | dose: 50.0 mg/kg/injection, schedule: Q04DX003 (ip), vehicle: saline 118 % of control | dose: 100.0 mg/kg/injection, schedule: Q01DX009 (ip), vehicle: saline 94 % of control | dose: 100.0 mg/kg/injection, schedule: Q04DX003 (ip), vehicle: saline 111 % of control | dose: 200.0 mg/kg/injection, schedule: Q04DX003 (ip), vehicle: saline 100 % of control | dose: 400.0 mg/kg/injection, schedule: Q04DX003 (ip), vehicle: saline 115 % of control

CC(=O)CC(=O)NC1CCCCC1
inactive: [2] 100 % of control | [3] 100 % of control | dose: 400.0 mg/kg/injection, schedule: Q01DX009 (ip), vehicle: saline with Tween-80 100 % of control

O=C(NC(=O)c1c(F)cccc1F)Nc1ncc(Cl)cc1Cl
inactive: [1] 90 % of control | [2] 100 % of control | [3] 90 % of control

Cc1cc(C)c(B2OB(c3c(C)cc(C)cc3C)O2)c(C)c1
inactive: dose: 50.0 mg/kg/injection, schedule: Q04DX003 (ip), vehicle: Klucel (hydroxypropylcellulose) (HPC) 95 % of control | dose: 100.0 mg/kg/injection, schedule: Q04DX003 (ip), vehicle: Klucel (hydroxypropylcellulose) (HPC) 100 % of control | dose: 200.0 mg/kg/injection, schedule: Q04DX003 (ip), vehicle: Klucel (hydroxypropylcellulose) (HPC) 95 % of control

O.O.O.O.O=C([OH2+])CN=Cc1ccccc1O.O=C([OH2+])CN=Cc1ccccc1O.[Ni].[Ni]
inactive: dose: 4.0 mg/kg/injection, schedule: Q01DX009 (ip), vehicle: saline with Tween-80 100 % of control | dose: 6.25 mg/kg/injection, schedule: Q04DX003 (ip), vehicle: saline with Tween-80 113 % of control | dose: 8.0 mg/kg/injection, schedule: Q01DX009 (ip), vehicle: saline with Tween-80 115 % of control

CCOC(=O)C1=C(C)NC(C)=C(C(=O)OCC)C1c1ccc([N+](=O)[O-])s1
inactive: [1] 106 % of control | [2] 99 % of control

Clc1c(Cl)c2c(Cl)c(Cl)c1C[P+](c1ccccc1)(c1ccccc1)CC[P+](c1ccccc1)(c1ccccc1)Cc1c(Cl)c(Cl)c(c(Cl)c1Cl)C[P+](c1ccccc1)(c1ccccc1)CC[P+](c1ccccc1)(c1ccccc1)C2
inactive: dose: 1.56 mg/kg/injection, schedule: Q01DX009 (ip), vehicle: water 92 % of control | dose: 3.13 mg/kg/injection, schedule: Q01DX009 (ip), vehicle: water 113 % of control | dose: 6.25 mg/kg/injection, schedule: Q01DX009 (ip), vehicle: water 106 % of control

C=CCSc1nc(N)nc2nc[nH]c12
inactive: dose: 100.0 mg/kg/injection, schedule: Q01DX009 (ip), vehicle: saline sonified 110 % of control | [4] 104 % of control | [5] 100 % of control | [6] 109 % of control

NC(c1ccccc1)c1c(O)ccc2ccccc12 (configuration not stated)
inactive: dose: 100.0 mg/kg/injection, schedule: Q01DX009 (ip), vehicle: gum acacia 103 % of control | dose: 100.0 mg/kg/injection, schedule: Q04DX003 (ip), vehicle: gum acacia 109 % of control | dose: 200.0 mg/kg/injection, schedule: Q01DX009 (ip), vehicle: gum acacia 107 % of control | dose: 200.0 mg/kg/injection, schedule: Q04DX003 (ip), vehicle: gum acacia 122 % of control | dose: 400.0 mg/kg/injection, schedule: Q01DX009 (ip), vehicle: gum acacia 117 % of control | dose: 400.0 mg/kg/injection, schedule: Q04DX003 (ip), vehicle: gum acacia 122 % of control

Cc1cccc(C)c1NC(=S)N1CCC(CCCC2CCN(C(=S)Nc3c(C)cccc3C)CC2)CC1
inactive: [1] 86 % of control | [2] 90 % of control | [3] 104 % of control

Nc1cccc(OCCCCCOc2cccc(N)c2)c1
inactive: dose: 12.5 mg/kg/injection, schedule: Q01DX009 (ip), vehicle: Klucel (hydroxypropylcellulose) (HPC) 96 % of control | dose: 25.0 mg/kg/injection, schedule: Q01DX009 (ip), vehicle: Klucel (hydroxypropylcellulose) (HPC) 108 % of control | [9] 94 % of control

CC1(O)CCC2C3CCC4=CC(=O)CCC4C3CCC21C (configuration not stated)
inactive: [9] 113 % of control | dose: 65.0 mg/kg/injection, schedule: Q01DX009 (ip), vehicle: Klucel (hydroxypropylcellulose) (HPC) 94 % of control | dose: 66.0 mg/kg/injection, schedule: Q01DX009 (ip), vehicle: Klucel (hydroxypropylcellulose) (HPC) 95 % of control and 100 % of control | dose: 100.0 mg/kg/injection, schedule: Q04DX003 (ip), vehicle: other 100 % of control | dose: 200.0 mg/kg/injection, schedule: Q01DX009 (ip), vehicle: Klucel (hydroxypropylcellulose) (HPC) 100 % of control and 118 % of control | dose: 200.0 mg/kg/injection, schedule: Q04DX003 (ip), vehicle: other 115 % of control

Cc1ccc(S(=O)(=O)OC2CCN(C)CC2)cc1
inactive: dose: 3.0 mg/kg/injection, schedule: Q04DX003 (ip), vehicle: saline 100 % of control | dose: 6.0 mg/kg/injection, schedule: Q04DX003 (ip), vehicle: saline 95 % of control | dose: 12.0 mg/kg/injection, schedule: Q04DX003 (ip), vehicle: saline 100 % of control | [8] 100 % of control

N#CC1OC(COC(=O)c2ccccc2)C(O)C1O (configuration not stated)
inactive: [1] 101 % of control | [2] 94 % of control | [3] 88 % of control
